Test results from PubChem BioAssay (NCI).
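1) Cells in 96-well plates. 2) Compound, 48 h, 5 concentrations. 3) Linear interpolation between surrounding doses. 4) Unreached endpoint = highest concentration. TGI: total growth inhibition.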

How the values were obtained:
Test in all cases: NCI-60 cell line screen, 48 h
HL-60(TB) leukemia = test system: HL-60(TB) leukemia
COLO 205 colon = test system: COLO 205 colon
MOLT-4 leukemia = test system: MOLT-4 leukemia
NCI-H522 lung = test system: NCI-H522 lung
OVCAR-4 ovarian = test system: OVCAR-4 ovarian
CAKI-1 renal = test system: CAKI-1 renal
NCI-H226 lung = test system: NCI-H226 lung
A549 NSCLC = test system: A549 NSCLC
U251 CNS = test system: U251 CNS
IGROV1 ovarian = test system: IGROV1 ovarian
HOP-18 NSCLC = test system: HOP-18 NSCLC
HOP-62 NSCLC = test system: HOP-62 NSCLC
LXFL 529 NSCLC = test system: LXFL 529 NSCLC
MALME-3M melanoma = test system: MALME-3M melanoma
UACC-257 melanoma = test system: UACC-257 melanoma
DMS 273 small cell lung = test system: DMS 273 small cell lung
SNB-19 CNS = test system: SNB-19 CNS
SN12C renal = test system: SN12C renal
UACC-62 melanoma = test system: UACC-62 melanoma
SK-OV-3 ovarian = test system: SK-OV-3 ovarian
M19-MEL melanoma = test system: M19-MEL melanoma
DLD-1 colon = test system: DLD-1 colon
OVCAR-3 ovarian = test system: OVCAR-3 ovarian
UO-31 renal = test system: UO-31 renal
SF-539 CNS = test system: SF-539 CNS
KM12 colon = test system: KM12 colon
DMS 114 small cell lung = test system: DMS 114 small cell lung
ACHN renal = test system: ACHN renal
SNB-78 CNS = test system: SNB-78 CNS
SK-MEL-2 melanoma = test system: SK-MEL-2 melanoma
CCRF-CEM leukemia = test system: CCRF-CEM leukemia
RPMI-8226 leukemia = test system: RPMI-8226 leukemia
HCT-116 colon = test system: HCT-116 colon
A498 renal = test system: A498 renal
HCC-2998 colon = test system: HCC-2998 colon
786-0 renal = test system: 786-0 renal
SNB-75 CNS = test system: SNB-75 CNS
OVCAR-8 ovarian = test system: OVCAR-8 ovarian
RXF-631 renal = test system: RXF-631 renal
SR leukemia = test system: SR leukemia
KM20L2 colon = test system: KM20L2 colon
TK-10 renal = test system: TK-10 renal
HCT-15 colon = test system: HCT-15 colon
NCI-H460 lung = test system: NCI-H460 lung
SF-268 CNS = test system: SF-268 CNS
SK-MEL-28 melanoma = test system: SK-MEL-28 melanoma
RXF 393 renal = test system: RXF 393 renal
M14 melanoma = test system: M14 melanoma
SK-MEL-5 melanoma = test system: SK-MEL-5 melanoma
K-562 leukemia = test system: K-562 leukemia
SW-620 colon = test system: SW-620 colon
XF 498 CNS = test system: XF 498 CNS
SF-295 CNS = test system: SF-295 CNS
EKVX NSCLC = test system: EKVX NSCLC
OVCAR-5 ovarian = test system: OVCAR-5 ovarian
HOP-92 NSCLC = test system: HOP-92 NSCLC
NCI-H23 lung = test system: NCI-H23 lung
HT29 colon = test system: HT29 colon

C[N+](C)=c1nc(N2CCc3ccccc3C2)ss1
TGI (HL-60(TB) leukemia): > 100 µM | TGI (COLO 205 colon): > 100 µM | TGI (MOLT-4 leukemia): > 100 µM | TGI (NCI-H522 lung): > 100 µM | TGI (OVCAR-4 ovarian): > 100 µM | TGI (CAKI-1 renal): > 100 µM | TGI (NCI-H226 lung): > 100 µM | TGI (A549 NSCLC): > 100 µM | TGI (U251 CNS): > 100 µM | TGI (IGROV1 ovarian): > 100 µM | TGI (HOP-18 NSCLC): > 100 µM | TGI (HOP-62 NSCLC): > 100 µM | TGI (LXFL 529 NSCLC): > 100 µM | TGI (MALME-3M melanoma): > 100 µM | TGI (UACC-257 melanoma): > 100 µM | TGI (DMS 273 small cell lung): > 100 µM | TGI (SNB-19 CNS): > 100 µM | TGI (SN12C renal): > 100 µM | TGI (UACC-62 melanoma): > 100 µM | TGI (SK-OV-3 ovarian): > 100 µM | TGI (M19-MEL melanoma): > 100 µM | TGI (DLD-1 colon): > 100 µM | TGI (OVCAR-3 ovarian): > 100 µM | TGI (UO-31 renal): > 100 µM | TGI (SF-539 CNS): > 100 µM | TGI (KM12 colon): > 100 µM | TGI (DMS 114 small cell lung): > 100 µM | TGI (ACHN renal): > 100 µM | TGI (SNB-78 CNS): > 100 µM | TGI (SK-MEL-2 melanoma): > 100 µM | TGI (CCRF-CEM leukemia): > 100 µM | TGI (RPMI-8226 leukemia): > 100 µM | TGI (HCT-116 colon): > 100 µM | TGI (A498 renal): > 100 µM | TGI (HCC-2998 colon): > 100 µM | TGI (786-0 renal): > 100 µM | TGI (SNB-75 CNS): > 100 µM | TGI (OVCAR-8 ovarian): > 100 µM | TGI (RXF-631 renal): > 100 µM | TGI (SR leukemia): > 100 µM | TGI (KM20L2 colon): > 100 µM | TGI (TK-10 renal): > 100 µM | TGI (HCT-15 colon): > 100 µM | TGI (NCI-H460 lung): > 100 µM | TGI (SF-268 CNS): > 100 µM | TGI (SK-MEL-28 melanoma): > 100 µM | TGI (RXF 393 renal): > 100 µM | TGI (M14 melanoma): > 100 µM | TGI (SK-MEL-5 melanoma): > 100 µM | TGI (K-562 leukemia): > 100 µM | TGI (SW-620 colon): > 100 µM

Cc1ccccc1N=NC(C(=O)c1ccccc1)C(=O)c1ccccc1
TGI (XF 498 CNS): 55.1 µM | TGI (HL-60(TB) leukemia): 37.9 µM | TGI (COLO 205 colon): > 100 µM | TGI (SF-295 CNS): > 100 µM | TGI (MOLT-4 leukemia): 74.3 µM | TGI (NCI-H522 lung): 39 µM | TGI (OVCAR-4 ovarian): 85.3 µM | TGI (CAKI-1 renal): 96.6 µM | TGI (NCI-H226 lung): 32.2 µM | TGI (A549 NSCLC): > 100 µM | TGI (U251 CNS): > 100 µM | TGI (IGROV1 ovarian): > 100 µM | TGI (HOP-62 NSCLC): 70.6 µM | TGI (LXFL 529 NSCLC): > 100 µM | TGI (MALME-3M melanoma): > 100 µM | TGI (UACC-257 melanoma): > 100 µM | TGI (DMS 273 small cell lung): 62.3 µM | TGI (SNB-19 CNS): 85.5 µM | TGI (SN12C renal): 58 µM | TGI (UACC-62 melanoma): 59.7 µM | TGI (SK-OV-3 ovarian): 88.4 µM | TGI (M19-MEL melanoma): 42.5 µM | TGI (DLD-1 colon): > 100 µM | TGI (OVCAR-3 ovarian): > 100 µM | TGI (UO-31 renal): 50.2 µM | TGI (SF-539 CNS): 81.8 µM | TGI (KM12 colon): > 100 µM | TGI (DMS 114 small cell lung): 50.7 µM | TGI (ACHN renal): > 100 µM | TGI (EKVX NSCLC): 88.3 µM | TGI (SK-MEL-2 melanoma): 46.5 µM | TGI (CCRF-CEM leukemia): 53.9 µM | TGI (OVCAR-5 ovarian): 81.2 µM | TGI (RPMI-8226 leukemia): 60.9 µM | TGI (HOP-92 NSCLC): 46.4 µM | TGI (HCT-116 colon): 54.4 µM | TGI (A498 renal): > 100 µM | TGI (HCC-2998 colon): > 100 µM | TGI (786-0 renal): 78.3 µM | TGI (NCI-H23 lung): 55.2 µM | TGI (SNB-75 CNS): 70.5 µM | TGI (OVCAR-8 ovarian): > 100 µM | TGI (HT29 colon): > 100 µM | TGI (RXF-631 renal): > 100 µM | TGI (KM20L2 colon): 70.7 µM | TGI (TK-10 renal): > 100 µM | TGI (HCT-15 colon): 80.8 µM | TGI (SF-268 CNS): > 100 µM | TGI (SK-MEL-28 melanoma): > 100 µM | TGI (M14 melanoma): 39.1 µM | TGI (SK-MEL-5 melanoma): 55.9 µM | TGI (K-562 leukemia): > 100 µM | TGI (SW-620 colon): > 100 µM
